Test [1] addresses T1, metabotropic glutamate receptor 5 (Rattus norvegicus, UniProt P31424).
T1 construct: expressed in transfected cells; host or cells: HEK-293
Put plainly: FLIPR Calcium 3 fluorescence-based functional assay of intracellular calcium, mGluR5 antagonist activity. Format: cell-based. The conditions noted are these: inhibition of glutamate (EC90, ~50 uM) stimulated calcium levels, mGluR5 HEK-293 cells; read-out: mGluR5 FLIPR MP Antagonist DR IC50. The source says: (§1) where [L]=concentration of free radioligand and Kd=dissociation constant of radioligand for the receptor. TITLE: Identification of metabotropic glutamate receptor 5 antagonists using a stable, sensitive fluorescence-based screening system PURPOSE: The aim of the research presented here was to develop a robust functional assay to measure changes in intracellular calcium, with the goal of identifying potent mGluR5 antagonists.
The FLIPR Calcium 3 Assay Kit is designed to work with many cell types, both adherent and non-adherent. Optimal cell conditions for the FLIPR Calcium 3 Assay Kit require the creation of a confluent cell monolayer before placing the plates in FLIPR or FlexStation. In general, we start with 50,000 mGluR5 HEK-293 cells/well for a 96-well plate. For adherent cells, seeding cells overnight with a plating volume of 100 μL/well worked for 96-well plates.
Remove cell plates from the incubator. Remove the supernatant medium. Add 180 ul of Loading Buffer to each well (for 96-well plates). HBSS buffer component B) pipette 100 mL of 10× Hank's Balanced Salt Solution and 20 mL of 1M Hepes buffer
Incubate cell plates for 1 hour at 37° C. and then keep the plates at room temperature until used.
After incubation, transfer the plates directly to FLIPR and begin the calcium assay as described in the FLIPR system manual. For a signal test, a starting average count of ˜10,000 is recommended. Recommended experimental setup parameters are as follows. Faster addition speeds can lead to better mixing of compounds and lower signal variance across the plate.
Test or reference compound is added to the 96-well plate (manually). […] Relative Fluorescence Units (RFUs) are recorded over a given time period (stated above) depending on the platform system used.
For antagonists, results are expressed as % inhibition of glutamate stimulated Calcium levels. IC50 values were calculated by Prism GraphPad using a 4-parameter logistic equation. IC50 values are calculated using GraphPad by fitting to a 1 site-model.
(In general: A change in cytosolic calcium serves as a functional read-out for many receptors and channels.)

The target of test [2] is T2, rat mGluR5 receptor (Rattus norvegicus, UniProt P31424).
T2 construct: expressed in transfected cells; host or cells: HEK-293
T2 sequence (P31424 21-1203): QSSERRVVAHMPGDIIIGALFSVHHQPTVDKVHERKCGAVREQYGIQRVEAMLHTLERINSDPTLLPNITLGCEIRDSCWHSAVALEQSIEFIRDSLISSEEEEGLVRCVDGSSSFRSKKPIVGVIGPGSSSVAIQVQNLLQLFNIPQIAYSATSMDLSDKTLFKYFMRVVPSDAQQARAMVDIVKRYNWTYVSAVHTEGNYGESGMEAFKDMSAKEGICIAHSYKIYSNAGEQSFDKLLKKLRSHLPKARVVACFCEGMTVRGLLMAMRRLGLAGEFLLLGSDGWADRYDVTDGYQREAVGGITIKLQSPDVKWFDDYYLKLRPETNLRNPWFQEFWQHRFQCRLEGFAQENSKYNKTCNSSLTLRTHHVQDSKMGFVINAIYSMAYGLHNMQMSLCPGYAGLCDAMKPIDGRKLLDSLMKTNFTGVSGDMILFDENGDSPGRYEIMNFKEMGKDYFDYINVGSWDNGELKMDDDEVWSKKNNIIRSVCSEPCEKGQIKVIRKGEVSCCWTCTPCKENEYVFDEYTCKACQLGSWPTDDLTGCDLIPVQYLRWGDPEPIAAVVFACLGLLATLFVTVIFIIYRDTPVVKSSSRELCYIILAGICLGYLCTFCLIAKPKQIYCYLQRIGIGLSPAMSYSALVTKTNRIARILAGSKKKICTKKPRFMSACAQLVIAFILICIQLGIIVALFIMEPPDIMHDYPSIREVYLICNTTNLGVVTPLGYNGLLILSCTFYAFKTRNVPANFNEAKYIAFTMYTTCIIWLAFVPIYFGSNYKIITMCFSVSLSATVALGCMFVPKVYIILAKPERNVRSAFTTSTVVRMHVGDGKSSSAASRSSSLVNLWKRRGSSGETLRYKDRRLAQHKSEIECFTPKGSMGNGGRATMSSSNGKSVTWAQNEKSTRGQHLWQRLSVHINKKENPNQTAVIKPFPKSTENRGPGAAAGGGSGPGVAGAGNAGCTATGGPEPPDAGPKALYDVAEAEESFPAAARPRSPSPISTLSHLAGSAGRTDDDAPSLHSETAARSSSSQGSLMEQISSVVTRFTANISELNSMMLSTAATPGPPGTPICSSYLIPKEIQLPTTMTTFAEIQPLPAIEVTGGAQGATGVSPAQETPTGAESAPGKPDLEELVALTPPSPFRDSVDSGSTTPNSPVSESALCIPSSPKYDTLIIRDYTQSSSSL
The test is described as follows: [3H]-MPEP binding HEK-293 cell membranes expressing a rat mGluR5 receptor. The conditions noted are these: displacement of 4 nM [3H]-MPEP, HEK-293 cell membranes expressing rat mGluR5, 60 minute at room temperature; read-out: mGluR5 Ligand Binding DR Ki. On the procedure:
TITLE: [^3H]-MPEP binding HEK-293 cell membranes expressing a rat mGluR5 receptor. PURPOSE: To identify high affinity compounds at the rat mGluR5 receptor based on their ability to displace the mGluR5 negative allosteric modulator, MPEP.
mGluR5 expressing HEK-293 cells are scraped off the plate, transferred to centrifuge tubes, and washed twice by centrifugation (2000 rpm for 10 min., 4° C.) in buffer (50 mM Tris pH 7.5). The resulting pellets are aliquoted and placed at −80° C. On the day of assay, the cells are thawed on ice, and resuspended in buffer. The binding assay is performed in a 96 well microtiter plate in a total volume of 250 μL. Non-specific binding is determined in the presence of 10 μM MPEP. Binding reaction includes a final radioligand [^3H]-MPEP concentration of 4 nM and 12-25 ug membrane protein per well. Following a 60 minute incubation at room temperature, the reaction is terminated by the addition of ice cold buffer and rapid filtration through a GF/B filter presoaked for 30 minutes in 0.5% PEI. Compounds are initially tested in a single point assay to determine percent inhibition at 10 μM. Subsequently, Ki values are determined for compounds defined to be active.
% inhibition and Ki values generated by GraphPad Prism and Excel Fit. IC50 values are calculated using GraphPad by fitting to a 1 or 2 site-binding model. Ki values are calculated from the apparent IC50 values using the Cheng-Prussof equation:
as §1

T1 sequence (P31424 21-1203): as above

The IC50 is the concentration that gives 50% inhibition. The Ki is a dissociation constant, usually derived from enzyme kinetics or from competition with a known ligand. With `COc1ccc(C(=O)N2Cc3ccc(Br)cc3C2)cc1C#Cc1ccccn1` [Example 33, 5-bromo-2-[4-methoxy-3-(pyridin-2-ylethynyl)benzoyl]isoindoline], in test [1], the IC50 was found to be 173 nM. Further, the Ki in test [2] was 2 nM.

Consider `COc1ccc(C(=O)N2Cc3cc(Cl)c(Cl)cc3C2)cc1C#Cc1ccccn1` [Example 34, 5,6-dichloro-2-[4-methoxy-3-(pyridin-2-ylethynyl)benzoyl]isoindoline], for which the IC50 in test [1] came out at 1450 nM. The Ki in test [2] was 17 nM.

Consider `COc1ccc(C(=O)N2Cc3ccc([N+](=O)[O-])cc3C2)cc1C#Cc1ccccn1` [Example 35, 2-[4-methoxy-3-(pyridin-2-ylethynyl)benzoyl]-5-nitroisoindoline], for which, in test [1], the half-inhibitory concentration (IC50) worked out at 61 nM. In addition, the inhibitory constant (Ki) in test [2] came to 23 nM.

With `COc1ccc(C(=O)N2Cc3cccc(F)c3C2)cc1C#Cc1ccccn1` [Example 36, 4-fluoro-2-[4-methoxy-3-(pyridin-2-ylethynyl)benzoyl]isoindoline], the IC50 in test [1] was determined as 25 nM. In test [2], the inhibition constant (Ki) was found to be 6 nM.

Regarding `COc1ccc(C(=O)N2Cc3ccc(F)cc3C2)cc1C#Cc1ccccn1` [Example 37, 5-fluoro-2-[4-methoxy-3-(pyridin-2-ylethynyl)benzoyl]isoindoline], in test [1], the IC50 came to 40 nM. Further, in test [2], the Ki amounted to 6 nM.

For `COc1ccc(C(=O)N2Cc3cccc(Cl)c3C2)cc1C#Cc1ccccn1` [Example 38, 4-chloro-2-[4-methoxy-3-(pyridin-2-ylethynyl)benzoyl]isoindoline], the half-maximal inhibitory concentration (IC50) in test [1] was determined as 51 nM. In addition, in test [2], the Ki was 2 nM.

In the case of `COc1ccc(C(=O)N2CCc3ncccc3C2)cc1C#Cc1ccccn1` [Example 39, 6-[4-methoxy-3-(pyridin-2-ylethynyl)benzoyl]-5,6,7,8-tetrahydro-1,6-naphthyridine], the half-maximal inhibitory concentration (IC50) in test [1] was found to be 26 nM. In test [2], the Ki stood at 23 nM.

In the case of `COc1ccc(C(=O)N2CCc3ncc(C)cc3C2)cc1C#Cc1ccccn1` [Example 40, 6-[4-methoxy-3-(pyridin-2-ylethynyl)benzoyl]-3-methyl-5,6,7,8-tetrahydro-1,6-naphthyridine], in test [1], the IC50 was determined as 21 nM. Besides, in test [2], the inhibition constant (Ki) turned out to be 22 nM.

With `COc1ccc(C(=O)N2Cc3cnc(C)cc3C2)cc1C#Cc1ccccn1` [Example 41, 2-[4-methoxy-3-(pyridin-2-ylethynyl)benzoyl]-6-methyl-2,3-dihydro-1H-pyrrolo[3,4-c]pyridine], in test [1], the IC50 came out at 12 nM. Besides, the Ki in test [2] was 26 nM.

As for `COc1ccc(C(=O)N2Cc3cnc(C)c(C)c3C2)cc1C#Cc1ccccn1` [Example 42, 2-[4-methoxy-3-(pyridin-2-ylethynyl)benzoyl]-6,7-dimethyl-2,3-dihydro-1H-pyrrolo[3,4-c]pyridine], in test [1], the 50% inhibitory concentration (IC50) worked out at 28 nM. The Ki in test [2] was 20 nM.

On to `COc1ccc(C(=O)N2Cc3cnc(C)c(Cl)c3C2)cc1C#Cc1ccccn1` [Example 43, 7-chloro-2-[4-methoxy-3-(pyridin-2-ylethynyl)benzoyl]-6-methyl-2,3-dihydro-1H-pyrrolo[3,4-c]pyridine], for which the 50% inhibitory concentration (IC50) in test [1] is 17 nM. In addition, in test [2], the inhibition constant (Ki) was 12 nM.

Take `COc1ccc(C(=O)N2Cc3cnc(C)c(N)c3C2)cc1C#Cc1ccccn1` [Example 44, 2-[4-methoxy-3-(pyridin-2-ylethynyl)benzoyl]-6-methyl-2,3-dihydro-1H-pyrrolo[3,4-c]pyridin-7-amine]: the half-inhibitory concentration (IC50) in test [1] is 14 nM. The Ki in test [2] stood at 20 nM.

In the case of `COc1ccc(C(=O)N2Cc3cnc(C)c(OC)c3C2)cc1C#Cc1ccccn1` [Example 45, 7-methoxy-2-[4-methoxy-3-(pyridin-2-ylethynyl)benzoyl]-6-methyl-2,3-dihydro-1H-pyrrolo[3,4-c]pyridine], in test [1], the IC50 was 35 nM. The Ki in test [2] amounted to 31 nM.

Consider `COc1ccc(C(=O)N2Cc3ccncc3C2)cc1C#Cc1ccccn1` [Example 46, 2-[4-methoxy-3-(pyridin-2-ylethynyl)benzoyl]-2,3-dihydro-1H-pyrrolo[3,4-c]pyridine], for which the half-maximal inhibitory concentration (IC50) in test [1] is 18 nM. Moreover, the inhibition constant Ki in test [2] was 31 nM.

With `COc1ccc(C(=O)N2CCc3oc(C)nc3C2)cc1C#Cc1ccccn1` [Example 47, 5-{[4-methoxy-3-(pyridin-2-ylethynyl)phenyl]carbonyl}-2-methyl-4,5,6,7-tetrahydro[1,3]oxazolo[4,5-c]pyridine], in test [1], the IC50 is 33 nM. In addition, the Ki in test [2] amounted to 30 nM.

For `COc1ccc(C(=O)N2CCc3nc(C)sc3C2)cc1C#Cc1ccccn1` [Example 48, 5-{[4-methoxy-3-(pyridin-2-ylethynyl)phenyl]carbonyl}-2-methyl-4,5,6,7-tetrahydro[1,3]thiazolo[5,4-c]pyridine], the half-maximal inhibitory concentration (IC50) in test [1] amounted to 42 nM. In addition, the Ki in test [2] is 23 nM.

As to `COc1ccc(C(=O)N2CCc3cccnc3C2)cc1C#Cc1ccccn1` [Example 50, 7-{[4-methoxy-3-(pyridin-2-ylethynyl)phenyl]carbonyl}-5,6,7,8-tetrahydro-1,7-naphthyridine], the half-maximal inhibitory concentration (IC50) in test [1] stood at 17 nM. Besides, the inhibitory constant (Ki) in test [2] worked out at 17 nM.

Regarding `COc1ccc(C(=O)N2CCc3ncc(Cl)cc3C2)cc1C#Cc1ccccn1` [Example 51, 3-chloro-6-{[4-methoxy-3-(pyridin-2-ylethynyl)phenyl]carbonyl}-5,6,7,8-tetrahydro-1,6-naphthyridine], in test [1], the IC50 came out at 30 nM. For the same molecule, the Ki in test [2] worked out at 13 nM.

With `COc1ccc(C(=O)N2CCc3ncc(C(F)(F)F)cc3C2)cc1C#Cc1ccccn1` [Example 52, 6-{[4-methoxy-3-(pyridin-2-ylethynyl)phenyl]carbonyl}-3-(trifluoromethyl)-5,6,7,8-tetrahydro-1,6-naphthyridine], in test [1], the concentration for half-maximal inhibition (IC50) came to 49 nM. Also, the inhibitory constant (Ki) in test [2] is 29 nM.

On to `COc1ccc(C(=O)N2CCc3[nH]ncc3C2)cc1C#Cc1ccccn1` [Example 53, 5-{[4-methoxy-3-(pyridin-2-ylethynyl)phenyl]carbonyl}-4,5,6,7-tetrahydro-1H-pyrazolo[4,3-c]pyridine], for which the 50% inhibitory concentration (IC50) in test [1] came to 4 nM. The Ki in test [2] was found to be 27 nM.

Turning to `COc1ccc(C(=O)N2Cc3cccnc3C2)cc1C#Cc1ccccn1` [Example 54, 6-{[4-methoxy-3-(pyridin-2-ylethynyl)phenyl]carbonyl}-6,7-dihydro-5H-pyrrolo[3,4-b]pyridine], the half-inhibitory concentration (IC50) in test [1] is 8 nM. Further, the inhibition constant (Ki) in test [2] was found to be 26 nM.

For the molecule `COc1ccc(C(=O)N2CCOc3ccccc3C2)cc1C#Cc1ccccn1` [Example 55, 4-{[4-methoxy-3-(pyridin-2-ylethynyl)phenyl]carbonyl}-2,3,4,5-tetrahydro-1,4-benzoxazepine], in test [1], the 50% inhibitory concentration (IC50) amounted to 12 nM. The Ki in test [2] came out at 29 nM.

For the molecule `COc1ccc(C(=O)N2CCc3ccccc3CC2)cc1C#Cc1ccccn1` [Example 57, 3-{[4-methoxy-3-(pyridin-2-ylethynyl)phenyl]carbonyl}-2,3,4,5-tetrahydro-1H-3-benzazepine], in test [1], the IC50 was 17 nM. The inhibitory constant (Ki) in test [2] was 15 nM.

Turning to `COc1ccc(C(=O)N2CCc3[nH]cnc3C2)cc1C#Cc1ccccn1` [Example 58, 5-{[4-methoxy-3-(pyridin-2-ylethynyl)phenyl]carbonyl}-4,5,6,7-tetrahydro-1H-imidazo[4,5-c]pyridine], in test [1], the IC50 worked out at 18 nM. In addition, the Ki in test [2] was 57 nM.

As for `COc1ccc(C(=O)N2CCCc3ccccc3C2)cc1C#Cc1ccccn1` [Example 59, 2-{[4-methoxy-3-(pyridin-2-ylethynyl)phenyl]carbonyl}-2,3,4,5-tetrahydro-1H-2-benzazepine], the IC50 in test [1] was 29 nM. For the same molecule, the Ki in test [2] was 42 nM.

As to `O=C(c1ccc(Cl)c(C#Cc2ccccn2)c1)N1Cc2ccccc2C1` [Example 60, 2-[4-Chloro-3-(pyridin-2-ylethynyl)benzoyl]isoindoline], in test [1], the 50% inhibitory concentration (IC50) is 6 nM. In test [2], the inhibition constant Ki amounted to 1 nM.

Values taken from patent publication US20100273772A1, “Bisaryl Alkynylamides as Negative Allosteric Modulators of Metabotropic Glutamate Receptor 5 (MGLUR5)” (Wyeth LLC, priority 2009, published 2010).
